# Measurements reported in PMC9424906 (Frontiers in Pharmacology, 2022).
# Tests used:
# [1] = Pharmacokinetics in Beagle dogs; format: in vivo, dog; settings: for half-life: plasma
# Procedure: Adult male C57BL/6 mice and Sprague Dawley rats were purchased from Charles River Laboratory (Wilmington, MA). PK studies for mice and rats were conducted at NIH animal facility (Bethesda, MD). In-life dog and monkey PK studies were conducted at Absorption System (San Diego, CA) and Frontage Labs (Concord, OH), respectively. Dogs and monkeys were fasted overnight prior to dose administrations. All experimental procedures were reviewed and approved by the Animal Care and Use Committee (ACUC) of the NIH Division of Veterinary Resources (DVR) or CRO labs for in-life studies.
# The dosing volume was 1.0 mL/kg for both groups. Plasma (both IV and PO groups) and urine (IV group) samples were collected over a period of 48 h.
# Blood samples from all groups and species were collected in K2EDTA tubes and stored on wet ice pending processing. Blood was centrifuged at 2200 g at 4°C for 10 min to isolate plasma. All samples were stored at -80°C until analysis.
# Phoenix WinNonlin, version 8.1 (Certara, St. Louis, MO), was used to perform PK analysis with the non-compartmental approach (Models 200 and 201 for PO and IV datasets). The area under the plasma concentration vs. time curve (AUC) was calculated using the linear trapezoidal method. The terminal rate constant (λ) was obtained from the slope of at least three data points of the apparent terminal phase of the log-linear plasma concentration vs. time curve when available. AUC0–∞ was estimated as the sum of the AUC0–t (where t is the time of the last measurable concentration) and Ct/λ. The apparent terminal half-life (t½) was calculated as 0.693/λ. Bioavailability (F) was calculated using ratios of dose normalized AUC (AUC/Dose) obtained from PO and IV PK studies.
# [2] = system: plateable cryopreserved hepatocytes; format: in vitro ADME, mouse, rat, dog, monkey, human
# Procedure: Plateable cryopreserved hepatocytes from male CD-1 mouse (Lot# DYF, 81.2% viability), male SD rat (Lot# PMD, 88.1% viability), male Beagle dog (Lot# YTK, 90.0% viability), male Cynomolgus monkey (Lot# GJV, 88.7% viability), and male human (Lot# PDC, 82.9% viability) were purchased from BioIVT (Baltimore, MD). Following vendor’s instructions, the hepatocyte vials were thawed in a 37°C water bath and cells were suspended in 5 mL of corresponding plating media (antibiotic added, rodent media for mouse and rat, dog media for dog, and primate media for monkey and human). The cells were manually counted using Trypan Blue method and were diluted to target concentration (0.35 million/mL for mouse and 0.7 million/mL for other species) with plating media. Diluted cells (500 µL) were then added to Collagen-I coated 24-well plate, distributed evenly, and incubated for 4 h for attaching. Media was changed 4 h prior to compound addition.
# After 24 and 48 h, the reaction was stopped by adding 3x volumes of cold acetonitrile to the reaction mixture. Samples were vortexed and centrifuged to precipitate proteins. The supernatants were transferred to clean tubes and dried under a stream of N2 for ∼20 min at ambient temperature to remove most of organic solvent. The remaining liquid was dried by lyophilization. […]
# [3] = Liver microsomal stability, CD-1 mouse; format: in vitro ADME; settings: liver microsomes, pH 7.4, 0.5 mg/mL
# Procedure: Samples were analyzed using UPLC-MS/MS.
# OAT3 = settings: cited from earlier work
# MDR1 = experiment: in vitro; settings: human, Caco-2, pH 7.4
# in vitro = settings: human, Caco-2, pH 7.4
# BCRP = experiment: in vitro; settings: human, Caco-2, pH 7.4
# [4] = parameters: species or system human
# Procedure: Allometric methods were used to predict human plasma clearance and volume of distribution ([Mahmood and Balian, 1996]; [Sharma and McNeill, 2009]). Human PK prediction was carried out with GastroPlus, version 9.6 (SimulationsPlus, Lancaster, CA)
# To predict human exposures after oral administration, human PK parameters were estimated using allometric scaling and human PK profile was simulated using GastroPlus. The allometric scaling was performed as previously described ([Mahmood and Balian, 1996]).
# OATP1B3 = settings: cited from earlier work
# MATE2-K = settings: cited from earlier work
# [5] = 7-days dose range finding study in monkeys; settings: oral, 7 days, 1,000 mg/kg/day
# [6] = male, beagle, dog, in vivo, iv, 2 mg/kg
# [7] = male, beagle, dog, in vivo, po, 5 mg/kg
smiles,measurement,setting,value
N#C[C@@]1(c2ccc3c(N)ncnn23)O[C@H](CO)[C@@H](O)[C@H]1O [GS-441524],t1/2,"[1]; Dog, PO 5 mg/kg, 5 mg/kg",4.1 ± 1.1 h
same,Vd,"[1]; male, Beagle, dog, in vivo, iv, 2 mg/kg, Vdss",0.9 L/kg
same,half-life,"[1]; male, Beagle, dog, iv, 2 mg/kg, IV 2 mg/kg",~4 h
same,half-life,"[1]; male, Beagle, dog, po, 5 mg/kg, PO 5 mg/kg",~4 h
same,Mean urinary excretion of unchanged parent drug,[1]; [6],~64%
same,clearance,[1]; [6],4.1 ± 0.7 mL/min/kg
same,Cmax,[1]; [7],6010 ng/mL
same,Tmax,[1]; [7],0.28 ± 0.19 h
same,bioavailability,[1]; [7],85 ± 17%
same,AUC(0-inf),"[1]; male, beagle, in vivo, Dog, PO 5 mg/kg",19000 ng·h/mL
same,Glucuronidation and sulfation metabolites in plateable hepatocytes,[2],detected at trace amount
same,Phosphorylated metabolites in plateable hepatocytes,[2],no detectable phosphorylated metabolites
same,half-life at 1 µM,[3],1.3 ± 0.05 h
same,Substrate of OAT3,OAT3,not a substrate
same,"Papp A→B at 2 h, 5 µM",MDR1,0.16 ×10⁻⁶ cm/s
same,"Papp B→A at 2 h, 5 µM",MDR1,0.79 ×10⁻⁶ cm/s
same,"Papp A→B at 2 h, 5 µM",in vitro,0.099 ×10⁻⁶ cm/s
same,"Papp B→A at 2 h, 5 µM",in vitro,0.971 ×10⁻⁶ cm/s
same,"Papp A→B at 2 h, 5 µM",BCRP,0.229 ×10⁻⁶ cm/s
same,"Papp B→A at 2 h, 5 µM",BCRP,0.267 ×10⁻⁶ cm/s
same,Calculated human CLp as share of human hepatic blood flow,[4]; allometric scaling,approximately 10%
same,Predicted human CLp,"[4]; allometric scaling from mouse, rat, monkey, dog",2.7 mL/min/kg
same,Predicted human Vdss,[4]; human,0.6 L/kg
same,Substrate of OATP1B3,OATP1B3,not a substrate
same,Substrate of MATE2-K,MATE2-K,not a substrate
same,Tolerability at maximum feasible dose,[5],well tolerated
